Experimental data reported in patent US20220387370A1, “METHODS OF REDUCING NEUROLOGICAL DAMAGE IN WILSON DISEASE PATIENTS” (priority 2019, published 2022).
“Also recorded” adds a separate entry of the source. Where two headings read alike, the source gives them in different places.

Assays:
Atp7b^−/− rats = test: Chelator treatment of WD rats: copper in serum, urine and feces (ICP-OES); format: in vivo, rat
Protocol: Control Atp7b^+/- and WD Atp7b^-/- rats were fed ad libitum with normal chow (1314; 13.89 mg Cu/kg; Altromin Spezialfutter GmbH, […], Germany) and tap water. All rats were healthy at treatment start and presented no signs of acute liver damage (serum AST <200 U/L and serum bilirubin <0.5 mg/dl). […] Untreated Atp7b^+/- and Atp7b^-/- rats served as controls. Urine and feces were collected at 24-hour intervals for which rats were housed individually in metabolic cages for 4 days. After a two-day resting period off treatment in normal cages and group housing, rats were sacrificed for serum collection.

[1] = tested on: HepG2, EA.hy926, U87MG and SHSY5Y cells; test: Cu-albumin cell toxicity, CellTiter-Glo, all investigated cell lines; format: cell-based, human
Protocol: (§1) SHSY5Y (human neuroblastoma), U87MG (human astrocytoma), EA.hy926 (human endothelium) and HepG2 (human hepatocellular carcinoma) cells were from ATCC (Wesel, Germany) and were cultured in Dulbecco's Modified Eagle Medium (DMEM) supplemented with 10% FCS (Biochrom, Berlin, Germany) and 1% antibiotic-antimycotic (Life Technologies, Carlsbad, USA). All cells were maintained at 37° C. in a humidified atmosphere with 5% CO2.

HepG2 cells [2] = test: Cu-albumin cell toxicity, CellTiter-Glo, HepG2; format: cell-based, human; settings: HepG2, 750 μM chelator
Protocol: as §1

EA.hy926 cells [3] = test: Cu-albumin cell toxicity, CellTiter-Glo, EA.hy926; format: cell-based, human; settings: EA.hy926, 750 μM chelator
Protocol: as §1

[4] = tested on: HepG2, EA.hy926, U87MG and SHSY5Y cells; test: Toxicity of the chelator itself in a copper-free setting, CellTiter-Glo
Protocol: as §1

[5] = tested on: HepG2, EA.hy926, U87MG and SHSY5Y cells; test: Cellular copper content (ICP-OES), all cell lines; format: cell-based, human; settings: 750 μM copper, 250 μM albumin, 750 μM chelator, 24 h; vs Cu-albumin alone
Text: (§2) Afterwards, cells were trypsinized and counted.

EA.hy926 cells [6] = test: Cellular copper content (ICP-OES), EA.hy926; format: cell-based, human; settings: EA.hy926; 750 μM copper, 250 μM albumin, 750 μM chelator; vs Cu-albumin alone
Text: as §2

HepG2 cells [7] = test: Cellular copper content (ICP-OES), HepG2; format: cell-based, human; settings: 750 μM copper, 250 μM albumin, 750 μM chelator, vs Cu-albumin alone
Text: as §2

SHSY5Y cells = test: Cellular copper content (ICP-OES), SHSY5Y; format: cell-based, human; settings: 750 μM copper, 250 μM albumin, 750 μM chelator, vs Cu-albumin alone
Text: as §2

EA.hy926 and U87MG cells = test: Electron microscopy of mitochondrial structure; format: cell-based, human; settings: electron micrographs, co-treatment with chelator
Text: Electron microscopy of cells was done as previously described ([…]., et al., Cell Mol Gastroenterol Hepatol, 2018. 7(3): p. 571-596) on a 1200EX electron microscope (JEOL, […], Japan) at 60 kv. Pictures were taken with a […] digital camera (Olympus, Hamburg, Germany) and processed by the iTEM software package (analySIS FIVE, Olympus, Hamburg, Germany).

PBCEC monolayers [8] = test: TEER and capacitance of PBCEC monolayers (endothelial blood-brain barrier model); format: cell-based, porcine
Text: (§3) For transepithelial resistance (TEER) experiments (Srinivasan, B., et al., J Lab Autom, 2015. 20(2): p. 107-26), cryopreserved primary porcine brain capillary endothelial cells (PBCECs) were thawed and seeded either on rat tail collagen-coated 96-well plates for cytotoxicity testing using the Neutral red assay (Repetto, G., A. del Peso, and J. L. Zurita, Nat Protoc, 2008. 3(7): p. 1125-31) or Transwell® inserts (area: 1.12 cm^2, pore size: 0.4 μm: Corning, N.Y., USA) for barrier integrity studies. Cells were cultured for 48 hours in Earle's Medium 199 supplemented with 10% FCS, 50 U penicillin/mL, 50 μg/mL streptomycin, 100 μg/mL gentamycin and 0.7 mM I-glutamine and maintained at 37° C. in a humidified atmosphere with 5% CO2. […] TEER and capacitance values were continuously monitored over 48 h using a CellZscope device (nanoAnalytics, Münster, Germany). Only PBCEC monolayers with initial TEER values >600Ωcm^2 and capacitance values between 0.45 and 0.6 μF/cm^2 were used for permeability studies (Bornhorst, J., et al., J Biol Chem, 2012. 287(21): p. 17140-51). The barrier integrity was calculated by normalizing the TEER values to the respective start values.

PBCEC monolayers [9] = test: Copper in the basolateral compartment of the Transwell PBCEC model (ICP-MS/MS); format: cell-based, porcine; settings: 250 μM copper and 83.3 μM albumin, 250 μM chelator, after 48 h
Text: as §3

[10] = tested on: tight junction protein claudin-5; test: Immunocytochemistry staining of claudin-5 in PBCEC monolayers; format: cell-based, porcine; settings: 250 μM copper and 83.3 μM albumin, 250 μM chelator
Protocol: Total copper was determined by ICP-MS/MS as previously described (Kopp, J. F., et al., J Trace Elem Med Biol, 2019. 54: p. 221-225). For the immunocytochemical staining of tight junction proteins, confluent PBCECs cultivated on Transwell® membrane inserts were processed as previously described ([…]., et al., Archives of Toxicology 2018. 92(2): p. 823-832). Briefly, PBCECs were fixed with formaldehyde and permeabilized using Triton X-100. After blocking of unspecific binding sites by albumin, the cells were incubated with the either anti-claudin 5 or anti-ZO-1 antibody (Zytomed Systems GmbH, Berlin, Germany). Following a second blocking step, the cells were treated with an Alexa Fluor® 488 conjugated secondary antibody (Invitrogen, Molecular Probes Inc., Eugene, USA). Hoechst 33258 (Merck, Darmstadt, Germany) was used to stain cell nuclei. Subsequently, membranes were cut out of the inserts and mounted in Aqua Poly/Mount (Polysciences Inc., Washington, USA). After a solidification period of 24 hours, the samples were evaluated using a DM6 B fluorescence microscope by Leica Microsystems CMS GmbH (Wetzlar, Germany) in combination with the Leica Application Suite X.

PBCEC monolayers [11] = test: Electron microscopy of tight junctions of PBCECs; format: cell-based, porcine; settings: copper-treated PBCECs, electron micrographs
Protocol: Electron microscopy of PBCECS grown on Transwell® inserts was performed as previously described (Ye, D., K. A. Dawson, and I. Lynch, Analyst, 2015. 140(1): p. 83-97) with minor modifications. Briefly, after fixation with 2.5% glutaraldehyde, cell monolayers were post-fixed with 1% osmium tetroxide for 30 min and dehydrated by ethanol.

[12] = tested on: HepG2, EA.hy926, U87MG and SHSY5Y cells; settings: 750 μM copper, 250 μM albumin, 750 μM chelator
Protocol: 2×10^4 cells were seeded into each well of a 96-well plate and incubated overnight. […] Cell toxicity was either determined by CellTiter-Glo® assay (Promega, Madison, USA) or Trypan blue exclusion test.
Afterwards, cells were trypsinized and counted. Cell viability was determined by Trypan blue exclusion test.

[13] = in vivo; cited from earlier work
neurologic WD patients = settings: cited from earlier work
[14] = unit inferred; read-out: Kd (copper affinity); cited from earlier work

Compound: CC(C)(S)[C@@H](N)C(=O)O [DPA, (2S)-2-amino-3-methyl-3-sulfanylbutanoic acid, reference compound]
- fecal copper excretion (Atp7b^−/− rats; during treatment): unchanged
- urinary copper excretion (Atp7b^−/− rats; during treatment, urine collected over 24 h): significantly increased; also recorded: significant increase
- serum copper levels (Atp7b^−/− rats; i.p. once daily for 4 consecutive days (ALXN1840 2.5 mg/kg bw, DPA 100 mg/kg bw), serum at sacrifice after resting period): elevated blood copper was not observed
- share of net copper intake found in the urine (Atp7b^−/− rats; upon DPA treatment, total net uptake 3.95 μmol/24 h): 10%
- copper found in the urine (Atp7b^−/− rats; upon DPA treatment, unpublished observation): 0.4 μmol/24 h
- CellTiterGlo-assessed cell viability / Cu-albumin toxicity ([1]; 750 μM chelator, 250 μM albumin, copper 250 to 2500 μM, 24 h): much less effective; also recorded: not significantly increased
- CellTiterGlo-assessed cell viability / Cu-albumin toxicity ([1]; low dose of chelator (250 μM)): no effect on cell viability
- CellTiterGlo-assessed cell viability / Cu-albumin toxicity (HepG2 cells [2]): modest rescuing effect
- CellTiterGlo-assessed cell viability / Cu-albumin toxicity (EA.hy926 cells [3]): completely absent
- non-toxic concentrations ([4]; copper-free setting): up to 2 mM
- CellTiterGlo-assessed cell viability with chelator alone ([4]; without external Cu-albumin addition): not observed
- cellular copper content [5]: in none of the cell lines a significant de-coppering was noted; also recorded: did not change the amount of copper uptake
- cellular copper content (EA.hy926 cells [6]): tendentiously lower copper content
- cellular copper content (HepG2 cells [7]): highly similar cellular copper contents
- cellular copper content (SHSY5Y cells): tendentiously lower copper content
- Cu-albumin-induced alterations of mitochondrial structure (EA.hy926 and U87MG cells): no/minor effect; also recorded: no positive effect
- transepithelial electrical resistance (TEER) (PBCEC monolayers [8]; 250 μM copper and 83.3 μM albumin, 250 μM chelator, 48 h): not able to prevent the copper-induced TEER loss; also recorded: reduction of the TEER comparable to Cu-albumin treatment alone
- capacitance values (PBCEC monolayers [8]; Cu-albumin treatment in the absence or presence of chelator): unaffected
- copper in the basolateral compartment (copper influx) (PBCEC monolayers [9]): could not be avoided
- claudin-5 staining pattern / copper-induced gap formation [10]: could not prevent copper-induced gap formation; also recorded: did not prevent copper-induced gap formation
- loss of electron-dense protein complexes at the cell-cell borders (PBCEC monolayers [11]): not protected and not
- Trypan blue-assessed cell viability / copper-related cell toxicity [12]: could not be avoided
- blood peak after application [13]: 1 to 3 h
- patients with dramatic symptom worsening (neurologic WD patients; shortly upon treatment onset): 19-52%
- neurological worsening (neurologic WD patients; treated patients): frequently occur

Compound: [SH-].[SH-].[S]=[Mo]=[S] [TTM, tetrathiomolybdate]
- neurological worsening (neurologic WD patients; human, in vivo): hardly reported

Compound: N[C@@H](Cc1c[nH]cn1)C(=O)O [histidine]
- Kd [14]: ~1 nM
